Laboratory results reported in article PMC11979881, “Engineering Multifunctional Peptide-Decorated Nanofibers for Targeted Delivery of Temozolomide across the Blood–Brain Barrier” (Molecular Pharmaceutics, 2025).

What was measured:
U-118 MG [1] = assay: PrestoBlue cell viability, 2D U-118; assay type: cell-based, human
Procedure: (§1) Glioblastoma/astrocytoma U-87 MG (U-87) and glioma U-118 MG (U-118) cell lines derived from the human brain were plated in 25 cm^2 flasks. They were grown individually in Dulbecco’s modified eagle’s medium high glucose (DMEM), supplemented with fetal bovine serum (FBS, 10%), penicillin/streptomycin (P/S, 100 U/mL), and L-glutamine (L/GLUT, 2 mM, Sigma-Aldrich), in a humidified incubator (37 °C, 5% CO2). At 70% confluence, cells were individually detached with a 0.25% solution of trypsin-EDTA.
(§2) For 2D experiments, U-118 and U-87 cells were seeded in 48-well plates, at approximately 20,000 cells per well in DMEM culture medium with 10% FBS, under standard cell culture conditions (5% CO2, 37 °C). Once the cells were attached, they were treated for 24, 48, and 72 h with 1) NF-TMZ carrying TMZ at different concentrations: 2.5, 5, 7.5, and 10 μM; 2) NF-t; 3) free TMZ at different concentrations (0, 10, 100, and 250 μM). […] At the end of the incubation time, a cell viability assay was performed using the PrestoBlue assay: the cells were incubated for 1 h according to the manufacturer’s protocol, and then absorbance was measured at 570 nm (with 600 nm as the reference wavelength) using a Bio-Tek Synergy HT Microplate reader.

U-87 MG = assay: PrestoBlue cell viability, 2D U-87; assay type: cell-based, human
Procedure: as §1, §2

3D U-87 [2] = assay: PrestoBlue cell viability, 3D U-87 spheroids; assay type: cell-based, human; conditions: 3D U-87, 10 μM TMZ, 72 h, treated every 24 h
Procedure: Once the appropriate concentration corresponding to the greatest lowering of cell viability was established, we proceeded with the 3D U-118 and 3D U-87 cell assays. To produce 3D U-118 and 3D U-87 cells, we used the hanging drop method. Briefly, 10,000 cells per drop were placed in the lid of a 100 mm dish, creating a hydration chamber by placing PBS in the dish bottom. After incubating for 48 h at 37 °C/5% CO2, the aggregates were transferred to a 48-well plate (5 spheroids per well: approximately 50,000 cells/well). The 3D cells were treated every 24 h for 3 days. Each treatment was conducted on 10 spheroids: approximately 100,000 cells for each experimental class: 1) control; 2) NF-t; 3) NF-TMZ (10 μM); 4) free TMZ (10 μM). At the end of the incubation time, a cell viability assay was performed with using the PrestoBlue assay: the cells were incubated for 90 min, according to the manufacturer’s protocol. At the end of the incubation time, we measured the absorbance at 570 nm (with 600 nm as the reference wavelength) using a Bio-Tek Synergy HT Microplate reader.

[3] = test system: human brain microvascular endothelial cells (HBMEC); assay: PrestoBlue cell viability, HBMEC; assay type: cell-based; conditions: treated every 24 h for 3 days, TMZ 10 μM
Procedure: To verify whether NF-t or NF-TMZ influenced healthy brain endothelial cells constitutively expressing EGFRs, the experiment described above was conducted on human brain microvascular endothelial cells (HBMEC) and brain endothelial cells (bEnd.3) to assess their effects . Cells were seeded in a 96-well plate (15,000 cells per well) in their appropriate culture medium. After 24 h, cells were treated likewise with U-118 and U-87 cells with 10 μM TMZ, both conjugated and unconjugated with NF-t. The control was performed on cells cultured only in the medium. Under the same conditions as for 2D cells, the PrestoBlue assay was performed. […] TMZ release from NF-TMZ was evaluated using matrix metalloproteinase-9 (MMP-9). In particular, NF-TMZ was prepared as reported before and hydrated in the following buffer solution: 50 mM HEPES, 200 mM NaCl, 10 mM CaCl2, and 1 mM ZnCl2, at pH 7. The MMP-9 was preactivated with APMA 100 μM and Tris-HCl 50 mM (pH 7.2) and was left at 37 °C for 3 h.[33],[35] Once activated, MMP-9 was added to NF-TMZ and the culture medium at a final concentration of 40 nM; and cells were incubated for 72 h.

3D U-118 [4] = assay: Annexin V-FITC/Propidium Iodide assay, 3D U-118; assay type: cell-based, human; conditions: 3D U-118, 24 h, TMZ 10 μM
Procedure: (§3) To identify apoptotic and necrotic cells, Annexin V-FITC/Propidium Iodide (PI) assay was performed according to the manufacturer’s protocol. Annexin V highlights apoptotic cells by binding to phosphatidylserine (PS) on their membranes . Propidium Iodide (PI) binds to the DNA of necrotic cells, as it is not permeable to the cell membrane. Cells lose the membrane integrity, Annexin V-FITC/PI can enter the cells. After the 3D cell treatment, cells were stained with Annexin V-FITC/PI for 20 min in the dark. After washing with PBS, nuclei were labeled with 4′,6-diamidino-2-phenylindole (DAPI) for 5 min. Images of the 3D cells were acquired using the JuLi Stage_RealTime Cell History Recorder microscope with a 10x objective, using different channels: RFP, GFP, and DAPI. The images were corrected for brightness and contrast using Fiji software and analyzed to evaluate morphological parameters after treatments. For each experimental condition, three different assays were repeated.

3D U-87 [5] = assay: Annexin V-FITC/Propidium Iodide assay, 3D U-87; assay type: cell-based, human; conditions: TMZ 10 μM
Procedure: as §3

U118 MG spheroids = assay: Spheroid shape descriptors (Fiji), U118 MG; assay type: cell-based, human
Procedure: as §3
(§4) To evaluate shape descriptors, 10 spheroids for each formulation were imaged and analyzed by Fiji software (Table 4).
(§5) Table 4 was obtained using Fiji software, for U-118 and U-87 spheroids treated with NF-TMZ, free TMZ, and NF-t, compared with controls (no treatment), ***p < 0.001. Circularity was calculated as [drawing 3] . Values of 1.0 indicate a perfect circle; while as the value approaches 0.0, it indicates an increasingly elongated shape. Feret’s diameter was the maximum caliper of the object, also known as the longest distance between any two points along the selection boundary. The minimum caliper diameter is indicated as Min Feret. The aspect ratio of the particle’s fitted ellipse was calculated as [drawing 4] and is indicated as AR. Roundness was calculated as 4 [drawing 5] and is the inverse of AR. Shape descriptors describe the eventual changes in spheroid morphology following treatment.

U87 MG spheroids = assay: Spheroid shape descriptors (Fiji), U87 MG; assay type: cell-based, human
Procedure: as §3, §4, §5

3D U-118 [6] = assay: PrestoBlue viability on 3D dynamic in vitro BBB model, 3D U-118; assay type: cell-based, human; conditions: 3D U-118 in lower chamber, injection into upper chamber, TMZ 10 μM, 72 h
Procedure: (§6) To evaluate the effects of NF-TMZ on fluid-dynamically cultured 3D GBM cells, we set up different bioreactors containing HBMEC and hPC-PL cells in the upper chamber and 3D U-118 cells or 3D U-87 cells in the lower chamber. NF-TMZ (10 μM), NF-t, and free TMZ (10 μM) were injected into the upper chamber, and their effects were evaluated after 72 h using the PrestoBlue viability assay. Briefly, 72 h after treatment, spheroids in the lower chamber were taken out and placed inside 48-well plates, and the PrestoBlue viability reagent (1:10) was added for 1.5 h. The absorbance was quantified using a Bio-Tek Synergy HT Microplate Reader. The control bioreactor was performed with HBMEC and hPC–PL cells in the upper chamber; and 3D U-118 MG cells and 3D U-87 MG cells in the lower chamber without treatment.

3D U-87 [7] = assay: PrestoBlue viability on 3D dynamic in vitro BBB model, 3D U-87; assay type: cell-based, human; conditions: 3D U-87 in lower chamber, injection into upper chamber, TMZ 10 μM, 72 h
Procedure: as §6

U-118 MG [8] = conditions: U-118, 72 h, same experimental conditions; cited from earlier work
Procedure: In 2D experiments, we observed a remarkable effect on U-118 cells with all nanofibers carrying TMZ at different concentrations, which increased proportionally with the concentration. In particular, treatment with NF-TMZ (carrying TMZ at a concentration of 10 μM) caused a decrease in cell viability at 72 h by more than 40%, whereas a similar decrease (under the same experimental conditions) is reported in the literature with a TMZ concentration of 100 μM.[41] U-87 cells responded less to the treatment, but we still observed a reduction in cell viability of 30%. Indeed, the experiments performed ...

[9] = cited from earlier work
Excerpt: GBM is the most aggressive type of brain cancer, with a 5-year survival rate of less than 5% and a median survival period of 12–15 months.[9],[10] The standard treatment, consisting of surgery followed by chemotherapy with temozolomide (TMZ) and radiation therapy, marginally improves survival.

[10] = U118 MG spheroids, 10 spheroids per formulation, Fiji, ***p < 0.001 vs controls
[11] = U87 MG spheroids, 10 spheroids per formulation, Fiji

With `Cn1nnc2c(C(N)=O)ncn2c1=O` [TMZ, temozolomide] the “free TMZ concentration giving a similar effect as NF-TMZ (TMZ 10 μM)” value (U-118 MG [1]) was 100 to 250 µM, the “free TMZ concentration giving a similar effect as NF-TMZ (TMZ 10 μM)” value (U-87 MG; 2D U-87) was 100 to 250 µM and the “concentrations at which TMZ acted on cell survival” value (U-87 MG; 2D U-87, 24- and 48-h treatments) was ≥ 100 µM. For the same compound, the “decrease in viability compared to the control” value (3D U-87 [2]) was 55%, the “cell viability versus control” value [3] was “no significant difference” and the “apoptotic cells (Annexin V)” value (3D U-118 [4]) was “initial burst of apoptosis”. For the same compound, the “apoptotic cells (Annexin V) compared to the control” value (3D U-87 [5]; 3D U-87, 24 h) was “four-time increasing level”, the “necrotic cells (PI)” value (3D U-87 [5]; 3D U-87, 48 h) was “increase in necrotic cells” and the “spheroid surface area compared to control and NF-t” value (U118 MG spheroids; 3D U-118) was “significantly lower”. The Circularity (U118 MG spheroids; U118 MG spheroids, 10 spheroids per formulation, Fiji) was 0.425, the “Feret’s diameter” value (U118 MG spheroids; [10]) was 512.096 and the “Min Feret” value (U118 MG spheroids; [10]) was 397.785. The AR (U118 MG spheroids; U118 MG spheroids, aspect ratio of fitted ellipse, Fiji) was 1.298, the Round (U118 MG spheroids; U118 MG spheroids, roundness, Fiji) was 0.802 and the “spheroid surface area compared to control and NF-t” value (U87 MG spheroids; 3D U-87) was “significantly lower”. For the same compound, the Circularity (U87 MG spheroids; [11]) was 0.280, the “Feret’s diameter” value (U87 MG spheroids; [11]) was 841.910 and the “Min Feret” value (U87 MG spheroids; [11]) was 612.895. For the same compound, the AR (U87 MG spheroids; U87 MG spheroids, aspect ratio of fitted ellipse, Fiji) was 1.404, the Round (U87 MG spheroids; U87 MG spheroids, roundness, Fiji) was 0.732 and the “lower viability compared with the control” value (3D U-118 [6]) was < 20%. The “lower viability compared with the control” value (3D U-87 [7]) was 13%, the “TMZ concentration reported for a similar decrease in cell viability” value (U-118 MG [8]) was 100 µM and the “extravasation from blood to brain” value [9] was ~20%. The plasma half-life [9] was 2 h and the water solubility [9] was “poor water solubility”.
